Structures are written as SMILES.

T1 sequence (P08581 956-1390 limits assumed): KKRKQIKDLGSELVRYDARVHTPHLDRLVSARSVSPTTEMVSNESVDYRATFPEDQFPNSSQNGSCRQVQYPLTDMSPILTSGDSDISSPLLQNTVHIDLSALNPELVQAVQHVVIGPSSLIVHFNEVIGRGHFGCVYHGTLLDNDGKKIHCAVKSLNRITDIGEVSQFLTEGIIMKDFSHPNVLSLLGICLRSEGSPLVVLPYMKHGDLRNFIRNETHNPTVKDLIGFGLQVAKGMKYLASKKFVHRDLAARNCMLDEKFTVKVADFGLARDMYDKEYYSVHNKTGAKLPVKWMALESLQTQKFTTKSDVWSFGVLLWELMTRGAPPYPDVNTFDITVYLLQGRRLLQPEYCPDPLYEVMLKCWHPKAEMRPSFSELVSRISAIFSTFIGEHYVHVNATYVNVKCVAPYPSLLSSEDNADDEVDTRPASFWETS

This assay has as its target T1, human c-Met (Homo sapiens, UniProt P08581).
T1 construct: Recombinant GST-tagged cytosolic domains of human c-Met; 6xHis; made in house; host or cells: Sf9 or Sf21 insect cells (baculovirus)
The assay can be described thus: in vitro kinase assay (homogeneous time-resolved tyrosine kinase assay, METKA). Type of assay: biochemical. The settings on record: recombinant GST-tagged c-Met cytosolic domain, HTRF, 50 μM MgATP; read-out: Biological Activity (METKA IC50) Activity Code. The source says: Recombinant GST-tagged cytosolic domains of human c-Met and other receptor tyrosine kinases including mouse c-Met, human Ron, KDR, IGFR, EGFR, FGFR, Mer, TrkA and Tie2 are used to determine whether the compounds of the instant invention modulate the enzymatic activities of these kinases.
Soluble recombinant GST-tagged cytosolic domains of c-Met and other receptor tyrosine kinases are expressed in a baculovirus system (Pharmingen) according to a protocol recommended by the manufacturer. The c-DNA encoding each cytosolic domain is subcloned into a baculovirus expression vector (pGcGHLT-A, B or C, Pharmingen) containing an in frame 6× histidine tag and a GST tag. The resulting plasmid construct and BaculoGold baculovirus DNA (Pharmingen) are used to co-transfect Sf9 or Sf21 insect cells. After confirming expression of GST-tagged kinase fusion, a high titer recombinant baculovirus stock is produced, expression conditions are optimized, and a scaled up expression of rat KDR-GST fusion is performed. The fusion kinase is then purified from the insect cell lysate by affinity chromatography using glutathione agarose (Pharmingen). The purified protein is dialyzed against 50% glycerol, 2 mM DTT, 50 mM Tris-HCl (pH 7.4) and stored at −20° C. The protein concentrations of the fusion proteins are determined using Coomassie Plus Protein Assay (Pierce) with BSA as standard.
The kinase activities of c-Met and other kinases are measured using a modified version of the homogeneous time-resolved tyrosine kinase assay described by Park et al. (1999, Anal. Biochem. 269:94-104).
The procedure for determining the potency of a compound to inhibit c-Met kinase comprises the following steps: • 1. Prepare 3-fold serial diluted compound solutions in 100% dimethyl sulfoxide (DMSO) at 20× of the desired final concentrations in a 96 well plate. • 2. Prepare a master reaction mix containing 6.67 mM MgCl2, 133.3 mM NaCl, 66.7 mM Tris-HCl (pH 7.4), 0.13 mg/ml BSA, 2.67 mM dithiothreitol, 0.27 nM recombinant c-Met and 666.7 nM biotinylated synthetic peptide substrate (biotin-ahx-EQEDEPEGDYFEWLE-CONH2) (SEQ.ID.NO.:1). • 3. In a black assay plate, add 2.5 μl of compound solution (or DMSO) and 37.5 μl of master reaction mix per well. Initiate the kinase reaction by adding 10 μl of 0.25 mM MgATP per well. Allow the reactions to proceed for 80 min at room temperature. The final conditions for the reaction are 0.2 nM c-Met, 0.5 μM substrate, 50 μM MgATP, […], 100 mM NaCl, 2 mM DTT, 0.1 mg/ml BSA, 50 mM Tris (pH 7.4) and 5% DMSO. • 4. Stop the kinase reaction with 50 μl of Stop/Detection buffer containing 10 mM EDTA, 25 mM HEPES, 0.1% TRITON X-100, 0.126 μg/ml Eu-chelate labeled anti-phosphotyrosine antibody PY20 (cat. #AD0067, PerkinElmer) and 45 μg/ml Streptavidin-allophycocyanin conjugate (cat. #PJ25S, Prozyme). • 5. Read HTRF signals on a Victor reader (PerkinElmer) in HTRF mode after 60 min. • 6. IC50 is determined by fitting the observed relationship between compound concentration and HTRF signal with a 4-parameter logistic equation. Essentially the same procedure was used to determine the potency of compounds to inhibit mouse c-Met, human Ron, KDR, IGFR, EGFR, FGFR, Mer, TrkA and Tie2 except that the concentration of enzyme varied in individual assays (0.2 nM mouse c-Met; 2.5 nM Ron, 8 nM KDR; 0.24 nM IGFR; 0.24 nM EGFR; 0.14 nM FGFR; 16 nM Mer; 8 nM TrkA; 8 nM Tie2).
A general note: Time-resolved FRET reads energy transfer from a long-lived donor to a nearby acceptor.
Regarding `CNC(=O)c1ccc(OCc2nn(-c3cnn(C)c3)ccc2=O)cc1` [Example 16, N-methyl-4-{[1-(1-methyl-1H-pyrazol-4-yl)-4-oxo-1,4-dihydropyridazin-3-yl]methoxy}benzamide], the IC50 lay within 100 to 1000 nM.
Take `Cn1cc(-n2ccc(=O)c(COc3ccc(C(=O)NCC(F)(F)F)cc3)n2)cn1` [Example 18, 4-{[1-(1-methyl-1H-pyrazol-4-yl)-4-oxo-1,4-dihydropyridazin-3-yl]methoxy}-N-(2,2,2-trifluoroethyl) benzamide]: the IC50 is 1000 to 3000 nM.
The value for `Cn1cc(-n2ccc(=O)c(COc3ccc4[nH]c(-c5ccccc5)nc4c3)n2)cn1` [Example 19, 1-(1-methyl-1H-pyrazol-4-yl)-3-{[(2-phenyl-1H-benzimidazol-5-yl)oxy]methyl}pyridazin-4(1H)-one] was less than 100 nM; that for `O=c1ccn(-c2cccc(Br)c2)nc1COc1ccc2ncccc2c1` [Example 20, 1-(3-Bromophenyl)-3-[(quinolin-6-yloxy)methyl]pyridazin-4(1H)-one] was less than 100 nM; that for `O=c1ccn(-c2cncc(Br)c2)nc1COc1ccc2ncccc2c1` [Example 21, 1-(5-bromopyridin-3-yl)-3-[(quinolin-6-yloxy)methyl] pyridazin-4(1H)-one] was less than 100 nM.
Then `CCn1cc(-n2ccc(=O)c(COc3ccc4ncccc4c3)n2)cn1` [Example 22, 1-(1-ethyl-1H-pyrazol-4-yl)-3-[(quinolin-6-yloxy)methyl] pyridazin-1(4H)-one], with less than 100 nM; and `CCOc1cnc2ccc(OCc3nn(-c4cnn(C)c4)ccc3=O)cc2c1` [Example 23, 3-{[(3-Ethoxyquinolin-6-yl)oxy]methyl}-1-(1-methyl-1H-pyrazol-4-yl)pyridazin-4(1H)-one], with less than 100 nM.
With `COCCOc1cnc2ccc(OCc3nn(-c4cnn(C)c4)ccc3=O)cc2c1` [Example 24, 3-({[3-(2-methoxyethoxy)quinolin-6-yl]oxy}methyl)-1-(1-methyl-1H-pyrazol-4-yl)pyridazin-4(1H)-one], the IC50 is less than 100 nM.
On to `Cn1cc(-n2ccc(=O)c(COc3ccc4ncc(OCC5CCOC5)cc4c3)n2)cn1` (stereo not drawn) [Example 25, 1-(1-methyl-1H-pyrazol-4-yl)-3-({[3-(tetrahydrofuran-3-ylmethoxy)quinolin-6-yl]oxy}methyl)pyridazin-4(1H)-one], for which the IC50 was less than 100 nM.
Then `Cn1cc(-n2ccc(=O)c(COc3ccc4ncc(OCC5(C)COC5)cc4c3)n2)cn1` [Example 26, 3-[({3-[(3-methyloxetan-3-yl)methoxy]quinolin-6-yl}oxy)methyl]-1-(1-methyl-1H-pyrazol-4-yl)pyridazin-4(1H)-one], with less than 100 nM.
For the compound `Cn1cc(-n2ccc(=O)c(COc3ccc4ncncc4c3)n2)cn1` [Example 27, 1-(1-methyl-1H-pyrazol-4-yl)-3-[(quinazolin-6-yloxy)methyl]pyridazin-4(1H)-one], the IC50 lay within 100 to 1000 nM.
`COCCOc1cnc2ccc(OCc3nn(-c4cc(F)cc(C#N)c4)ccc3=O)cc2c1` [Example 28, 3-fluoro-5-[3-({[3-(2-methoxyethoxy)quinolin-6-yl]oxy}methyl)-4-oxopyridazin-1(4H)-yl]benzonitrile]: the IC50 was less than 100 nM.
`COCCOc1cnc2ccc(OCc3nn(-c4cc(Cl)cc(C#N)c4)ccc3=O)cc2c1` [Example 29, 3-chloro-5-[3-({[3-(2-methoxyethoxy)quinolin-6-yl]oxy}methyl)-4-oxopyridazin-1(4H)-yl]benzonitrile]: the half-inhibitory concentration (IC50) was less than 100 nM.
Then `COCCOc1cnc2ccc(OCc3nn(-c4ccc(F)c(F)c4)ccc3=O)cc2c1` [Example 30, 1-(3,4-difluorophenyl)-3-({[3-(2-methoxyethoxy)quinolin-6-yl]oxy}methyl)pyridazin-4(1H)-one], with less than 100 nM.
The value for `COCCOc1cnc2ccc(OCc3nn(-c4cc(F)cc(F)c4)ccc3=O)cc2c1` [Example 31, 1-(3,5-difluorophenyl)-3-({[3-(2-methoxyethoxy)quinolin-6-yl]oxy}methyl)pyridazin-4(1H)-one] was less than 100 nM.
The value for `Cn1cc(-n2ccc(=O)c(COc3cc(F)c4ncccc4c3)n2)cn1` [Example 32, 3-{[(8-fluoroquinolin-6-yl)oxy]methyl}-1-(1-methyl-1H-pyrazol-4-yl)pyridazin-4(1H)-one] was 1000 to 3000 nM; that for `CCOCCOc1ccnc2ccc(OCc3nn(-c4cnn(C)c4)ccc3=O)cc12` [Example 33, 3-({[4-(2-ethoxyethoxy)quinolin-6-yl]oxy}methyl)-1-(1-methyl-1H-pyrazol-4-yl)pyridazin-4(1H)-one] was 100 to 1000 nM; that for `COCCOc1ccnc2ccc(OCc3nn(-c4cnn(C)c4)ccc3=O)cc12` [Example 34, 3-({[4-(2-methoxyethoxy)quinolin-6-yl]oxy}methyl)-1-(1-methyl-1H-pyrazol-4-yl)pyridazin-4(1H)-one] was 100 to 1000 nM.
`COc1cnc2ccc(OCc3nn(-c4cnn(C)c4)ccc3=O)cc2c1` [Example 35, 3-{[(3-methoxyquinolin-6-yl)oxy]methyl}-1-(1-methyl-1H-pyrazol-4-yl)pyridazin-4(1H)-one]: the IC50 is less than 100 nM.
The value for `CCn1cc(-n2ccc(=O)c(COc3ccc4ncc(OCCOC)cc4c3)n2)cn1` [Example 36, 1-(1-ethyl-1H-pyrazol-4-yl)-3-({[3-(2-methoxyethoxy)quinolin-6-yl]oxy}methyl)pyridazin-4(1H)-one] was less than 100 nM; that for `Cn1cc(-n2ccc(=O)c(COc3ccc4ncc(F)cc4c3)n2)cn1` [Example 37, 3-{[(3-fluoroquinolin-6-yl)oxy]methyl}-1-(1-methyl-1H-pyrazol-4-yl)pyridazin-4(1H)-one] was less than 100 nM; that for `COCCOc1cnc2ccc(OCc3nn(-c4cccc(Br)c4)ccc3=O)cc2c1` [Example 38, 1-(3-bromophenyl)-3-({[3-(2-methoxyethoxy)quinolin-6-yl]oxy}methyl)pyridazin-4(1H)-one] was less than 100 nM.
The value for `Cn1cc(-n2ccc(=O)c(COc3ccc4ncc(-n5cnnc5)cc4c3)n2)cn1` [Example 39, 1-(1-methyl-1H-pyrazol-4-yl)-3-({[3-(4H-1,2,4-triazol-4-yl)quinolin-6-yl]oxy}methyl)pyridazin-4(1H)-one] was 100 to 1000 nM; that for `COCc1cn(-c2cnc3ccc(OCc4nn(-c5cnn(C)c5)ccc4=O)cc3c2)nn1` [Example 40, 3-[({3-[4-(methoxymethyl)-1H-1,2,3-triazol-1-yl]quinolin-6-yl}oxy)methyl]-1-(1-methyl-1H-pyrazol-4-yl)pyridazin-4(1H)-one] was less than 100 nM; that for `Cn1cc(-n2ccc(=O)c(COc3ccc4ncc(-n5cc(COC6CCNCC6)nn5)cc4c3)n2)cn1` [Example 41, 1-(1-methyl-1H-pyrazol-4-yl)-3-{[(3-{4-[(piperidin-4-yloxy)methyl]-1H-1,2,3-triazol-1-yl}quinolin-6-yl)oxy]methyl}pyridazin-4(1H)-one] was 100 to 1000 nM.
Then `Cn1cc(-n2ccc(=O)c(COc3ccc4ncc(-n5ccnn5)cc4c3)n2)cn1` [Example 42, 1-(1-Methyl-1H-pyrazol-4-yl)-3-({[3-(1H-1,2,3-triazol-1-yl)quinolin-6-yl]oxy}methyl)pyridazin-4(1H)-one], with less than 100 nM; and `CCOc1ccnc2ccc(OCc3nn(-c4cnn(C)c4)ccc3=O)cc12` [Example 43, 3-{[(4-Ethoxyquinolin-6-yl)oxy]methyl}-1-(1-methyl-1H-pyrazol-4-yl)pyridazin-4(1H)-one], with less than 100 nM.

As usually defined, the IC50 is the point on the concentration scale where inhibition reaches its midpoint.

The record behind these values is US20130116231A1, “TYROSINE KINASE INHIBITORS” (Merck Sharp & Dohme Corp., priority 2010, published 2013).
